Here are results for 4 compounds from publication PMC5768759 (2018).

The test system of assay [1] is F-duplex-T (DNA, hairpin, Spacer18 (hexaethylene glycol) between 10 and 11) TATAGCTATATATAGCTATA
Briefly: FRET melting. The note with it: 5 mM K+, 50 mM Li+; 5 mM lithium cacodylate, pH 7.4; compound 0.2 μM, DNA 0.2 μM; no increment above error.

Assay [2] deals with ds26 (DNA, duplex) CAATCGGATCGAATTCGATCCGATTG
Briefly: fluorescent intercalator displacement. The note with it: 100 mM K+; 10 mM lithium cacodylate, pH 7.4; thiazole orange 0.75 μM displaced; DNA 0.25 μM; nearly 10-fold weaker than c-myc.

Assay [3] concerns c-myc (DNA, G4) TGAGGGTGGGTAGGGTGGGTAA
Put plainly: fluorescent intercalator displacement. The note with it: 100 mM K+; 10 mM lithium cacodylate, pH 7.4; thiazole orange 0.5 μM displaced; DNA 0.25 μM.

Assay [4] has as its system ht21 (DNA, G4) GGGTTAGGGTTAGGGTTAGGG
Briefly: fluorescent intercalator displacement. The note with it: 100 mM K+; 10 mM lithium cacodylate, pH 7.4; thiazole orange 0.5 μM displaced; DNA 0.25 μM; nearly 6-fold weaker than c-myc.

Molecules are shown by their SMILES.

`NCCCCCCCN.[Cl-].[Cl-].[Pt+2].[Pt+2].c1ccc(-c2ccnc3c2ccc2c(-c4ccccc4)ccnc23)cc1.c1ccc(-c2ccnc3c2ccc2c(-c4ccccc4)ccnc23)cc1`: the binding result in assay [1] is recorded as “no”.
Turning to `NCCCCCCCCN.[Cl-].[Cl-].[Pt+2].[Pt+2].c1ccc(-c2ccnc3c2ccc2c(-c4ccccc4)ccnc23)cc1.c1ccc(-c2ccnc3c2ccc2c(-c4ccccc4)ccnc23)cc1`, the binding result in assay [1] is reported as “no”.
`NCCCCCCCCCCN.[Cl-].[Cl-].[Pt+2].[Pt+2].c1ccc(-c2ccnc3c2ccc2c(-c4ccccc4)ccnc23)cc1.c1ccc(-c2ccnc3c2ccc2c(-c4ccccc4)ccnc23)cc1`: the binding result in assay [1] is “no”.
For the compound `NCCCCCCCCCN.[Cl-].[Cl-].[Pt+2].[Pt+2].c1ccc(-c2ccnc3c2ccc2c(-c4ccccc4)ccnc23)cc1.c1ccc(-c2ccnc3c2ccc2c(-c4ccccc4)ccnc23)cc1`, the DC50 in assay [2] was determined as 1840 nM; in assay [3], 200 nM; in assay [4], 1170 nM. Also, in assay [1], the binding result is “no”.
